From patent publication US10765680B2, “Combination of a MCL-1 inhibitor and a taxane compound, uses and pharmaceutical compositions thereof” (priority 2017, dated 2020)

Key:
Type in all cases: cell-based
Conditions in all cases: single agent, read-out: Abs IC50
[1] = tested on: A549 lung cancer cell line; experiment: 72 hours CellTiter-Glo proliferation assay, A549
Experimental: (§1) Compounds were dissolved in 100% DMSO (Sigma, Catalog # D2438-50 ML) at a stock concentration of 10 mM and stored at −20° C. until use. Compounds were arrayed in 2 ml deep 96-well plates (Greiner bio-one, catalog number 780271) serially diluted 3-fold. Compound 1 was used over a concentration range of 0.0-10.0 μM. Paclitaxel was used over a concentration range of 0.0-1.0 μM in breast cancer cells and 0.0-2.0 μM range in lung cancer cells.
(§2) All cell lines were purchased from the American Type Culture Collection and cultured according to vendor recommendations. […] All cell lines were determined to be free of mycoplasma contamination by a PCR detection assay performed at Idexx Radil (Columbia, Mo., USA) and authenticated by SNP analysis. […] Cells were expanded to T-75 flasks and assessed for viability using a Beckman-Coulter ViCell counter prior to plating. […]
(§3) Cell proliferation was measured in 72 hours CellTiter-Glo™ (CTG) assays and all results shown are the result of at least triplicate measurements. […] After 72 hours of compound treatment the effects of compounds on cell proliferation was determined using the CellTiter-Glo™ Luminescent Cell Viability Assay (Promega, Catalog # G7573). This is a homogeneous method to determine the number of viable cells in culture based on quantitation of the ATP present, which signals the presence of metabolically active cells. […]

[2] = tested on: MDA-MB-468 breast cancer cell line; experiment: 72 hours CellTiter-Glo proliferation assay, MDA-MB-468
Experimental: as §1, §2, §3

[3] = tested on: MCF7 breast cancer cell line; experiment: 72 hours CellTiter-Glo proliferation assay, MCF7
Experimental: as §1, §2, §3

## COc1ccccc1-c1nccc(COc2ccccc2C[C@@H](Oc2ncnc3sc(-c4ccc(F)cc4)c(-c4ccc(OCCN5CCN(C)CC5)c(Cl)c4C)c23)C(=O)O)n1 [Compound 1, (2R)-2-{[(5Sa)-5-{3-chloro-2-methyl-4-[2-(4-methylpiperazin-1-yl)ethoxy]phenyl}-6-(4-fluorophenyl)thieno[2,3-d]pyrimidin-4-yl]oxy}-3-(2-{[2-(2-methoxyphenyl)pyrimidin-4-yl]methoxy}phenyl)propanoic acid]
[1]
  IC50: > 10 µM
[2]
  IC50: 9.92 µM
[3]
  IC50: 1.29 µM
